Assay results as given in PubChem BioAssay (NCI).
Several values for one entry are separate records, joined by “and”; a condition that tells them apart may be missing. Equal values may be shown once.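 Following 48 hours of exposure in 96-well plates, responses at five concentrations were used to interpolate endpoints linearly. Abbreviation: GI50, concentration required for 50% inhibition of growth. TGI marks complete inhibition of growth.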

How the values were obtained:
Experiment in all cases: NCI tumour cell line growth inhibition, 48 h
[1] = tested on: SK-MEL-28 melanoma
[2] = tested on: NCI-H460 lung
[3] = tested on: MALME-3M melanoma
[4] = tested on: HOP-92 NSCLC
[5] = tested on: NCI-H226 lung
[6] = tested on: SR leukemia
[7] = tested on: MDA-MB-435
[8] = tested on: UO-31 renal
[9] = tested on: BT-549 breast
[10] = tested on: NCI/ADR-RES ovarian

Structure (SMILES)	GI50 [1]	TGI [1]	GI50 [2]	TGI [2]	GI50 [3]	TGI [3]	GI50 [4]	TGI [4]	GI50 [5]	TGI [5]	GI50 [6]	TGI [6]	GI50 [7]	TGI [7]	GI50 [8]	TGI [8]	GI50 [9]	TGI [9]	GI50 [10]	TGI [10]
CN1CCc2nc3sc(C(N)=O)c(N)c3c(-c3cccs3)c2C1	2.91 µM	9.59 µM	3.71 µM	> 100 µM	5.06 µM	38.4 µM	3.16 µM	9.16 µM	3.16 µM	> 100 µM	1.8 µM	7.31 µM	3.13 µM	> 100 µM	3.47 µM	> 100 µM	3.26 µM	35.5 µM	3.69 µM	98.8 µM
Cc1cc(C)c(C2CNCc3cc4c(cc32)CNCC4c2c(C)cc(C)cc2C)c(C)c1 (configuration not stated)	1.83 µg/mL	3.47 µg/mL	2.53 µg/mL	6.91 µg/mL	3.05 µg/mL	7.45 µg/mL	11.8 µg/mL	24.9 µg/mL	13.4 µg/mL	26.5 µg/mL	0.303 µg/mL	1 µg/mL	1.88 µg/mL	3.84 µg/mL	2.04 µg/mL	5.56 µg/mL	4.39 µg/mL	15.9 µg/mL	6.38 µg/mL	19.5 µg/mL
COc1ccc2c(c1)C(=O)c1c-2c(OCCN(C)C)nc2ccccc12	4.53 µM	15.4 µM	1.15 µM	4.33 µM	2.46 µM	8.65 µM	8.05 µM	81.8 µM	2.15 µM	10.4 µM	0.998 µM	6.76 µM	2.58 µM	10.1 µM	0.962 µM	2.76 µM	12 µM	26 µM	3.05 µM	14.5 µM
Oc1c(-c2cc(C(F)(F)F)[nH]n2)cc(Cl)c(OCc2ccc(Cl)cc2)c1-c1ccc(Cl)c(C(F)(F)F)c1	0.392 µM	2.13 µM	0.361 µM	2.57 µM	0.789 µM	2.19 µM	0.111 µM	0.542 µM	0.917 µM	2.68 µM	0.256 µM	2.99 µM	1.06 µM	4.11 µM	0.818 µM	2.21 µM	0.624 µM	2.16 µM	0.221 µM	5.82 µM
COc1ccc(Nc2ccnc(N3CCN(c4ccnc5cc(Cl)ccc45)CC3)n2)cc1	1.21 µM	4.89 µM	0.837 µM	4.68 µM	1.11 µM	4.65 µM	0.32 µM	4.5 µM	1.41 µM	6.09 µM	0.601 µM	6.88 µM	0.227 µM	0.707 µM	0.629 µM	4.29 µM	1.16 µM	3.72 µM	0.769 µM	5.22 µM
Cc1[nH]nc(-c2ccon2)c1N=O	–	43.1 µM	–	> 100 µM	–	38.2 µM	–	29 µM	–	28.6 µM	–	29.5 µM	–	41 µM	–	46.6 µM	–	38 µM	–	38 µM
CC(C)C[C@H](NC(=O)CCn1ccc2ccccc2c1=O)B(O)O	3.27 µM	> 100 µM	13 µM	56.2 µM	2.58 µM	9.89 µM	10.9 µM	67.1 µM	1.47 µM	3.24 µM	1.7 µM	28.9 µM	1.27 µM	2.81 µM	3.92 µM	35.3 µM	2.21 µM	17.1 µM	67.1 µM	> 100 µM
COc1cc(/C=C/c2ccc3c(Br)cc(Br)c(O)c3n2)ccc1O	3.16 µM	12.9 µM	0.446 µM	11.5 µM	4.81 µM	18.4 µM	4.77 µM	20.8 µM	4.61 µM	17.4 µM	0.476 µM	3.41 µM	3.38 µM	19.6 µM	1.28 µM	12.4 µM	2.61 µM	13.6 µM	0.327 µM	1.49 µM
COc1ccc(/C=C(/C)[N+](=O)[O-])cc1OC	1.76 µM and 1.87 µM	3.66 µM and 3.6 µM	2.78 µM and 3.14 µM	7.78 µM and 9.48 µM	1.69 µM and 0.38 µM	3.89 µM and 1.56 µM	1.78 µM and 2.48 µM	4.52 µM and 5.64 µM	5.03 µM and 3.71 µM	9.63 µM and 13.4 µM	1.26 µM	7 µM	2.17 µM and 2.1 µM	5.55 µM and 5.29 µM	1.74 µM and 1.61 µM	3.26 µM and 3.23 µM	3.74 µM and 2.07 µM	8.87 µM and 3.92 µM	2.97 µM and 3.25 µM	9.77 µM and 13.9 µM
COc1ccc2c(-c3ccnc(Nc4cccc(OC(F)(F)F)c4)n3)cnn2n1	3.47 µM	> 25 µM	1.06 µM	4.79 µM	5.43 µM	> 25 µM	0.801 µM	7.11 µM	> 10.3 µM	> 25 µM	0.904 µM	> 25 µM	0.144 µM	0.692 µM	2.55 µM	> 12.3 µM	1.48 µM	> 25 µM	0.73 µM	6.74 µM
COc1ccc(/C=C(\C)[N+](=O)[O-])cc1OC	1.71 µM	3.44 µM	2.54 µM	6.56 µM	1.4 µM	3.17 µM	2.01 µM	3.71 µM	19.2 µM	40.5 µM	2.04 µM	> 100 µM	1.86 µM	3.94 µM	1.68 µM	3.2 µM	1.86 µM	3.36 µM	3.55 µM	13.4 µM
COc1cccc(Oc2ccccc2NC(=O)CNC(=O)c2cccc3ccccc23)c1	4.35 µM	> 25 µM	0.298 µM	4.53 µM	16.9 µM	> 25 µM	0.202 µM	14.9 µM	2.49 µM	> 25 µM	0.115 µM	> 25 µM	0.0711 µM	0.256 µM	1.8 µM	> 25 µM	0.298 µM	10.2 µM	0.238 µM	5.69 µM
CCc1c(C)nc2sc3c(N)ncnc3c2c1C	> 25 µM	> 25 µM	> 25 µM	> 25 µM	> 25 µM	> 25 µM	> 25 µM	> 25 µM	> 25 µM	> 25 µM	> 25 µM	> 25 µM	> 25 µM	> 25 µM	> 25 µM	> 25 µM	> 25 µM	> 25 µM	> 25 µM	> 25 µM
Nc1n[nH]c2ccc([C@@H]3Nc4cc5c(cc4[C@H]4C6CCC(C6)[C@@H]34)C(=O)NC5)cc12 (some centres not stated)	4.17 µM	> 100 µM	0.424 µM	> 100 µM	0.718 µM	> 100 µM	0.375 µM	> 100 µM	0.461 µM	> 20.9 µM	0.149 µM	> 100 µM	0.126 µM	0.49 µM	–	> 100 µM	0.32 µM	1.71 µM	2.69 µM	> 100 µM
CN1CCN(CCCCCN=c2cc3c(=O)n(CCCCCN4CCN(C)CC4)c(=O)c4c(NCCCCCN5CCN(C)CC5)cc5c(O)n(CCCCCN6CCN(C)CC6)c(=O)c2c5c4-3)CC1	2.96 µM	8.14 µM	3.06 µM	10.2 µM	2.55 µM	5.98 µM	1.84 µM	7.39 µM	3.25 µM	21.6 µM	4.01 µM	25.1 µM	2.7 µM	8.73 µM	75 µM	> 100 µM	4.34 µM	15.7 µM	> 100 µM	> 100 µM
O=Nc1c(-c2c(O)[nH]c3ncccc23)[nH]c2ccccc12	> 57.3 µM	> 100 µM	7.25 µM	> 100 µM	8.83 µM	> 41.5 µM	–	> 100 µM	15.3 µM	> 100 µM	0.274 µM	> 100 µM	> 100 µM	> 100 µM	1.64 µM	> 100 µM	5.41 µM	> 100 µM	> 100 µM	> 100 µM
Nc1nc(N)c(CCCCc2ccccc2)c(N)n1	–	> 100 µM	–	> 100 µM	–	> 100 µM	–	> 100 µM	–	> 100 µM	–	> 100 µM	–	> 100 µM	–	> 100 µM	–	> 100 µM	–	> 100 µM
O=C1C(OCCOc2ccccc2)=C(OCCOc2ccccc2)C(=O)c2ccccc21	16.5 µM	> 100 µM	3.05 µM	10.5 µM	24.5 µM	> 100 µM	1.21 µM	> 100 µM	22.1 µM	> 100 µM	7.26 µM	> 100 µM	35.4 µM	> 100 µM	12.2 µM	> 100 µM	> 100 µM	> 100 µM	7.64 µM	> 100 µM
COc1cc2c(cc1F)C(c1ccccc1Cl)=Nc1c(n[nH]c1C)N2	5.66 µM	20.4 µM	0.498 µM	26.5 µM	18 µM	32.7 µM	1.34 µM	13.5 µM	0.532 µM	16.3 µM	0.417 µM	32.8 µM	0.172 µM	19.1 µM	0.84 µM	6.25 µM	2.7 µM	20.5 µM	0.465 µM	29.5 µM
Oc1cc(-n2cccn2)c(O)cc1-n1cccn1	–	64.9 µM	–	> 100 µM	–	> 78.1 µM	–	39.8 µM	–	> 89 µM	–	73.3 µM	–	31.8 µM	–	54.2 µM	–	35.7 µM	–	> 100 µM
COc1cc(C(=O)c2cc(C)c3[nH]c4ccc(O)cc4c3c2C)cc(OC)c1OC	3.66 µM	> 100 µM	< 0.0185 µM	> 100 µM	0.0347 µM	> 100 µM	0.944 µM	> 100 µM	0.0943 µM	> 81.3 µM	< 0.01 µM	> 100 µM	< 0.01 µM	0.018 µM	0.269 µM	> 100 µM	< 0.0164 µM	1.26 µM	< 0.01 µM	–
FC(F)(F)c1cccc(-c2nn3ncccc3c2-c2ccnc(Nc3ccc4c(c3)OCCO4)n2)c1	> 25 µM	> 25 µM	11.1 µM	> 25 µM	> 25 µM	> 25 µM	5.52 µM	> 25 µM	14.2 µM	> 25 µM	10.4 µM	> 25 µM	13.1 µM	> 25 µM	3.68 µM	> 25 µM	16.4 µM	> 25 µM	8.96 µM	> 25 µM
